Among the data in patent US20250206732A1, “COMPOUNDS AND METHODS FOR THE TARGETED DEGRADATION OF KRAS” (Arvinas Operations, Inc., priority 2022, published 2025) are Dmax and DC50 values, retold here.

This experiment has as its target T1, AsPC-1 HiBiT-KRASG12D (Homo sapiens, UniProt P01116, G12D).
T1 construct: insert the HiBiT tag onto the N-terminus of one or more of the endogenous KRAS alleles; endogenous in cells; host or cells: AsPC-1 (ATCC CRL-1682), CRISPR-Cas9 knock-in clone, one tagged allele
The experiment in a line: HiBiT degradation assay (G12D), AsPC-1 HiBiT-KRASG12D cells. Type of experiment: cell-based. The note with it: 24 hours treatment; for Dmax: ASPC1, AsPC-1 HiBiT-KRASG12D cells, maximum degradation observed; for DC50: AsPC-1 HiBiT-KRASG12D cells, HiBiT luminescence. Put shortly: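 HiBiT-KRAS abundance was read as Nano-Glo HiBiT lytic luminescence (45 min, room temperature) after a PBS wash. Before that, a 4 h alamar blue fluorescence read, normalized to DMSO, monitored viability. Treatment lasted 24 hours at 37 °C, in triplicate, using AsPC-1 cells with endogenous N-terminally HiBiT-tagged KRAS G12D.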
A general note: HiBiT is a short tag that completes a luciferase, so light tracks the accessible tagged protein.

T1 sequence (P01116 1-188 isoform P01116-2 G12D): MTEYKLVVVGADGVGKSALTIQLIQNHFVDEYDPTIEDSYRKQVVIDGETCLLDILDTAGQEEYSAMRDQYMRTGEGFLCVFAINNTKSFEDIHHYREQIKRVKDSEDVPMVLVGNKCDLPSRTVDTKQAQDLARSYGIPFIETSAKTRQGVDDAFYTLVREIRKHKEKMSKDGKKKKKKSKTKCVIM

On to `CCc1cccc2cc(O)cc(-c3ncc4c(N5CC6CCC(C5)N6)nc(OCCN5CCC(F)(CN6CCN(c7cc([C@H](C(=O)N8C[C@H](O)C[C@H]8C(=O)N[C@@H](C)c8ccc(-c9scnc9C)cc8)C(C)C)on7)[C@H](C)C6)CC5)nc4c3F)c12` [Compound 194, (2S,4R)-1-[(2R)-2-{3-[(2R)-4-[(1-{2-[(4-{3,8-diazabicyclo[3.2.1]octan-3-yl}-7-(8-ethyl-3-hydroxynaphthalen-1-yl)-8-fluoropyrido[4,3-d]pyrimidin-2-yl)oxy]ethyl}-4-fluoropiperidin-4-yl)methyl]-2-methylpiperazin-1-yl]-1,2-oxazol-5-yl}-3-methylbutanoyl]-4-hydroxy-N-[(1S)-1-[4-(4-methyl-1,3-thiazol-5-yl)phenyl]ethyl]pyrrolidine-2-carboxamide], for which the Dmax – broadly, the largest share of the target that was removed – is 80 to 100% and the DC50 (usually the concentration at which degradation of the target reaches its halfway point) was under 0.6 µM.
The corresponding values for `CCc1cccc2cc(O)cc(-c3ncc4c(N5CC6CCC(C5)N6)nc(OCCN5CCC(COCC(=O)N[C@H](C(=O)N6C[C@H](O)C[C@H]6C(=O)N[C@@H](C)c6ccc(-c7scnc7C)c(Cl)c6)C(C)(C)C)CC5)nc4c3F)c12` [Compound 332, (2S,4R)—N-[(1S)-1-[3-chloro-4-(4-methyl-1,3-thiazol-5-yl)phenyl]ethyl]-1-[(2S)-2-{2-[(1-{2-[(4-{3,8-diazabicyclo[3.2.1]octan-3-yl}-7-(8-ethyl-3-hydroxynaphthalen-1-yl)-8-fluoropyrido[4,3-d]pyrimidin-2-yl)oxy]ethyl}piperidin-4-yl)methoxy]acetamido}-3,3-dimethylbutanoyl]-4-hydroxypyrrolidine-2-carboxamide] are 80 to 100% and 0.6 to 1 µM.
For `CCc1cccc2cc(O)cc(-c3ncc4c(N5CC6CCC(C5)N6)nc(OCCN5CCC(CC6CCN(c7cc([C@H](C(=O)N8C[C@H](O)C[C@H]8C(=O)N[C@@H](C)c8ccc(-c9ccnn9C)cc8)C(C)C)on7)CC6)CC5)nc4c3F)c12` [Compound 202, (2S,4R)-1-[(2R)-2-(3-{4-[(1-{2-[(4-{3,8-diazabicyclo[3.2.1]octan-3-yl}-7-(8-ethyl-3-hydroxynaphthalen-1-yl)-8-fluoropyrido[4,3-d]pyrimidin-2-yl)oxy]ethyl}piperidin-4-yl)methyl]piperidin-1-yl}-1,2-oxazol-5-yl)-3-methylbutanoyl]-4-hydroxy-N-[(1S)-1-[4-(1-methyl-1H-pyrazol-5-yl)phenyl]ethyl]pyrrolidine-2-carboxamide], the Dmax was in the range of 80 to 100% and the 50% degradation concentration (DC50) is under 0.6 µM.
On to `CCc1cccc2cc(O)cc(-c3ncc4c(N5CC6CCC(C5)N6)nc(OCCN5CCC[C@@H](CN6CCN(c7cc([C@H](C(=O)N8C[C@H](O)C[C@H]8C(=O)N[C@@H](C)c8ccc(-c9scnc9C)cc8)C(C)C)on7)CC6)C5)nc4c3F)c12` [Compound 228], for which the Dmax fell in the range of 80 to 100% and the DC50 is under 0.6 µM.
`C#Cc1c(F)ccc2cc(O)cc(-c3ncc4c(N5CC6CCC(C5)N6)nc(OCCN5CCC6(CC5)CN(c5cc([C@H](C(=O)N7C[C@H](O)C[C@H]7C(=O)N[C@@H](C)c7ccc(-c8scnc8C)cc7)C(C)C)on5)C6)nc4c3F)c12` [Compound 33, (2S,4R)-1-[(2R)-2-[3-(7-{2-[(4-{3,8-diazabicyclo[3.2.1]octan-3-yl}-7-(8-ethynyl-7-fluoro-3-hydroxynaphthalen-1-yl)-8-fluoropyrido[4,3-d]pyrimidin-2-yl)oxy]ethyl}-2,7-diazaspiro[3.5]nonan-2-yl)-1,2-oxazol-5-yl]-3-methylbutanoyl]-4-hydroxy-N-[(1S)-1-[4-(4-methyl-1,3-thiazol-5-yl)phenyl]ethyl]pyrrolidine-2-carboxamide] showed a Dmax of 80 to 100% and a DC50 of under 0.6 µM.
`CCc1cccc2cc(O)cc(-c3ncc4c(N5CC6CCC(C5)N6C=O)nc(OCCN5CCC(CC6CN(c7cc([C@@H](C(=O)N8C[C@H](O)C[C@H]8C(=O)N[C@@H](C)c8ccc(-c9scnc9C)cc8)C(C)C)on7)C6)CC5)nc4c3F)c12` [Compound 247] gave a half-maximal degradation concentration (DC50) of over 3 µM.
